Test results: patent publication US11629129B2, “Microbiocidal picolinamide derivatives” (SYNGENTA PARTICIPATIONS AG, priority 2018, dated 2023)

Assays:
[1] = tested on: Glomerella lagenarium (Colletotrichum lagenarium); experiment: Glomerella lagenarium (Colletotrichum lagenarium)/Liquid Culture (Anthracnose); format: cell-based; settings: Colletotrichum orbiculare; 200 ppm in the formulation; liquid culture, growth inhibition photometrically 3 to 4 days after application; compared to untreated control; read-out: disease control
Protocol: (§1) Glomerella lagenarium (Colletotrichum lagenarium)/Liquid Culture (Anthracnose) Conidia of the fungus from cryogenic storage are directly mixed into nutrient broth (PDB potato dextrose broth). After placing a (DMSO) solution of test compound into a microtiter plate (96-well format), the nutrient broth containing the fungal spores is added. The test plates are incubated at 24° C. and the inhibition of growth is measured photometrically 3 to 4 days after application.

[2] = tested on: Phaeosphaeria nodorum (Septoria nodorum); experiment: Phaeosphaeria nodorum (Septoria nodorum)/Wheat/Leaf Disc Preventative (Glume Blotch); format: in vivo; settings: Parastagonospora nodorum, foliar; 200 ppm in the formulation; wheat leaf segments cv. Kanzler, inoculated 2 days after application, assessed 5-7 days after application; compared to untreated; read-out: disease control
Protocol: Phaeosphaeria nodorum (Septoria nodorum)/Wheat/Leaf Disc Preventative (Glume Blotch) Wheat leaf segments cv. Kanzler are placed on agar in a multiwell plate (24-well format) and sprayed with the formulated test compound diluted in water. The leaf disks are inoculated with a spore suspension of the fungus 2 days after application. The inoculated test leaf disks are incubated at 20° C. and 75% rh under a light regime of 12 h light/12 h darkness in a climate cabinet and the activity of a compound is assessed as percent disease control compared to untreated when an appropriate level of disease damage appears in untreated check leaf disks (5-7 days after application).

[3] = tested on: Botryotinia fuckeliana (Botrvtis cinerea); experiment: Botryotinia fuckeliana (Botrvtis cinerea)/Liquid Culture (Gray Mould); format: cell-based; settings: Botrytis cinerea; 200 ppm in the formulation; liquid culture, growth inhibition photometrically 3-4 days after application; compared to untreated control; read-out: disease control
Protocol: as §1, with “Botryotinia fuckeliana (Botrvtis cinerea)/Liquid” for “Glomerella lagenarium (Colletotrichum lagenarium)/Liquid”, “(Gray Mould)” for “(Anthracnose)”, “(Vogels” for “(PDB potato dextrose”, “determined” for “measured”, “3-4” for “3 to 4”

[4] = tested on: Mycosphaerella graminicola (Septoria tritici); experiment: Mycosphaerella graminicola (Septoria tritici)/Liquid Culture (Septoria Blotch); format: cell-based; settings: Zymoseptoria tritici; 200 ppm in the formulation; liquid culture, growth inhibition photometrically 4 to 5 days after application; compared to untreated control; read-out: disease control
Protocol: (§2) Mycosphaerella graminicola (Septoria tritici)/Liquid Culture (Septoria Blotch) Conidia of the fungus from cryogenic storage are directly mixed into nutrient broth (PDB potato dextrose broth). After placing a (DMSO) solution of test compound into a microtiter plate (96-well format), the nutrient broth containing the fungal spores is added. The test plates are incubated at 24° C. and the inhibition of growth is determined photometrically 4 to 5 days after application.

[5] = tested on: Puccinia recondita f. sp. tritici; experiment: Puccinia recondita f. sp. tritici/Wheat/Leaf Disc Preventative (Brown Rust); format: in vivo; settings: foliar, 200 ppm in the formulation, wheat leaf segments cv. Kanzler, inoculated 1 day after application, assessed 7-9 days after application, compared to untreated, read-out: disease control
Protocol: Puccinia recondita f. sp. tritici/Wheat/Leaf Disc Preventative (Brown Rust) Wheat leaf segments cv. Kanzler are placed on agar in multiwell plates (24-well format) and sprayed with the formulated test compound diluted in water. The leaf disks are inoculated with a spore suspension of the fungus 1 day after application. The inoculated leaf segments are incubated at 19° C. and 75% rh under a light regime of 12 h light/12 h darkness in a climate cabinet and the activity of a compound is assessed as percent disease control compared to untreated when an appropriate level of disease damage appears in untreated check leaf segments (7-9 days after application).

[6] = tested on: Mycosphaerella arachidis (Cercospora arachidicola); experiment: Mycosphaerella arachidis (Cercospora arachidicola)/Liquid Culture (Early Leaf Spot); format: cell-based; settings: 200 ppm in the formulation, liquid culture, growth inhibition photometrically 4-5 days after application, compared to untreated control, read-out: disease control
Protocol: as §2, with “arachidis (Cercospora arachidicola)/Liquid” for “graminicola (Septoria tritici)/Liquid”, “(Early Leaf Spot)” for “(Septoria Blotch)”, “4-5” for “4 to 5”

[7] = tested on: Monographella nivalis (Microdochium nivale); experiment: Monographella nivalis (Microdochium nivale)/Liquid Culture (Foot Rot Cereals); format: cell-based; settings: 200 ppm in the formulation, liquid culture, growth inhibition photometrically 4-5 days after application, compared to untreated control, read-out: disease control
Protocol: as §2, with “Monographella nivalis (Microdochium nivale)/Liquid” for “Mycosphaerella graminicola (Septoria tritici)/Liquid”, “(Foot Rot Cereals)” for “(Septoria Blotch)”, “4-5” for “4 to 5”

COc1ccnc(C(=O)N[C@@H](C)C(=O)O[C@@H](C)c2cccc(Oc3ccccc3)c2)c1O [I.aq.001, [(1S)-1-(3-phenoxyphenyl)ethyl] (2S)-2-[(3-hydroxy-4-methoxy-pyridine-2-carbonyl)amino] propanoate]
≥ 80%: inhibition of growth at 200 ppm [1] | pest or weed control at 200 ppm [2] | inhibition of growth at 200 ppm [3] | inhibition of growth at 200 ppm [4] | pest or weed control at 200 ppm [5]

COc1ccnc(C(=O)N[C@@H](C)C(=O)O[C@@H](C)c2ccc(Oc3ccc(Cl)cc3Cl)cc2)c1O [I.aw.001, [(1S)-1-[4-(2,4-dichlorophenoxy)phenyl]ethyl] (2S)-2-[(3-hydroxy-4-methoxy-pyridine-2-carbonyl)amino] propanoate]
≥ 80%: inhibition of growth at 200 ppm [1] | pest or weed control at 200 ppm [2] | inhibition of growth at 200 ppm [4] | inhibition of growth at 200 ppm [6] | pest or weed control at 200 ppm [5]

COc1ccnc(C(=O)N[C@@H](C)C(=O)O[C@@H](C)c2ccc(Oc3cccc(C(F)(F)F)c3)cc2)c1O [I.ax.001, [(1S)-1-[4-[3-(trifluoromethyl)phenoxy]phenyl]ethyl] (2S)-2-[(3-hydroxy-4-methoxy-pyridine-2-carbonyl)amino] propanoate]
≥ 80%: inhibition of growth at 200 ppm [1] | pest or weed control at 200 ppm [2] | inhibition of growth at 200 ppm [4] | inhibition of growth at 200 ppm [6] | pest or weed control at 200 ppm [5]

COc1ccnc(C(=O)N[C@@H](C)C(=O)O[C@@H](C)c2ccc(Oc3ccc(C(F)(F)F)cc3)cc2)c1O [I.ay.001, [(1S)-1-[4-[4-(trifluoromethyl)phenoxy]phenyl]ethyl] (2S)-2-[(3-hydroxy-4-methoxy-pyridine-2-carbonyl)amino] propanoate]
≥ 80%: inhibition of growth at 200 ppm [1] | pest or weed control at 200 ppm [2] | inhibition of growth at 200 ppm [7] | inhibition of growth at 200 ppm [4] | inhibition of growth at 200 ppm [6] | pest or weed control at 200 ppm [5]

COc1ccnc(C(=O)N[C@@H](C)C(=O)O[C@@H](C)c2ccc(Oc3ccc(C(F)(F)F)cc3Cl)cc2)c1O [I.az.001, [(1S)-1-[4-[2-chloro-4-(trifluoromethyl)phenoxy]phenyl]ethyl] (2S)-2-[(3-hydroxy-4-methoxy-pyridine-2-carbonyl)amino] propanoate]
≥ 80%: inhibition of growth at 200 ppm [1] | pest or weed control at 200 ppm [2] | inhibition of growth at 200 ppm [4] | inhibition of growth at 200 ppm [6]

COc1cc(-c2ccc([C@H](C)OC(=O)[C@H](C)NC(=O)c3nccc(OC)c3O)cc2)ccn1 [I.ba.001, [(1S)-1-[4-(2-methoxy-4-pyridyl)phenyl]ethyl] (2S)-2-[(3-hydroxy-4-methoxy-pyridine-2-carbonyl)amino] propanoate]
≥ 80%: inhibition of growth at 200 ppm [1] | pest or weed control at 200 ppm [2] | inhibition of growth at 200 ppm [7] | inhibition of growth at 200 ppm [4] | inhibition of growth at 200 ppm [6] | pest or weed control at 200 ppm [5]

COc1ccnc(C(=O)N[C@@H](C)C(=O)O[C@@H](C)c2ccc(-c3ccccc3)cc2)c1OC(C)=O [I.d.019, [(1S)-1-(4-phenylphenyl)ethyl] (2S)-2-[(3-acetoxy-4-methoxy-pyridine-2-carbonyl)amino] propanoate]
≥ 80%: pest or weed control at 200 ppm [2] | inhibition of growth at 200 ppm [4] | pest or weed control at 200 ppm [5]

COc1ccnc(C(=O)N[C@@H](C)C(=O)O[C@@H](C)c2ccc(-c3ccccc3C)cc2)c1O [I.h.001, [(1S)-1-[4-(o-tolyl)phenyl]ethyl] (2S)-2-[(3-hydroxy-4-methoxy-pyridine-2-carbonyl)amino] propanoate]
≥ 80%: inhibition of growth at 200 ppm [1] | pest or weed control at 200 ppm [2] | inhibition of growth at 200 ppm [7] | inhibition of growth at 200 ppm [3] | inhibition of growth at 200 ppm [4] | inhibition of growth at 200 ppm [6] | pest or weed control at 200 ppm [5]

CCc1ccccc1-c1ccc([C@H](C)OC(=O)[C@H](C)NC(=O)c2nccc(OC)c2O)cc1 [I.i.001, [(1S)-1-[4-(2-ethylphenyl)phenyl]ethyl] (2S)-2-[(3-hydroxy-4-methoxy-pyridine-2-carbonyl)amino] propanoate]
≥ 80%: inhibition of growth at 200 ppm [1] | pest or weed control at 200 ppm [2] | inhibition of growth at 200 ppm [4] | inhibition of growth at 200 ppm [6] | pest or weed control at 200 ppm [5]

COc1ccnc(C(=O)N[C@@H](C)C(=O)O[C@@H](C)c2ccc(-c3ccccc3COC(C)(C)C)cc2)c1O [I.k.001, [(1S)-1-[4-[2-(tert-butoxymethyl)phenyl]phenyl]ethyl] (2S)-2-[(3-hydroxy-4-methoxy-pyridine-2-carbonyl)amino] propanoate]
≥ 80%: inhibition of growth at 200 ppm [1] | pest or weed control at 200 ppm [2] | inhibition of growth at 200 ppm [3] | inhibition of growth at 200 ppm [4] | inhibition of growth at 200 ppm [6] | pest or weed control at 200 ppm [5]

COc1ccnc(C(=O)N[C@@H](C)C(=O)O[C@@H](C)c2ccc(-c3cccc(Cl)c3)cc2)c1O [I.r.001, [(1SS)-1-[4-(3-chlorophenyl)phenyl]ethyl] (2S)-2-[(3-hydroxy-4-methoxy-pyridine-2-carbonyl)amino] propanoate]
≥ 80%: inhibition of growth at 200 ppm [1] | inhibition of growth at 200 ppm [7] | inhibition of growth at 200 ppm [3] | inhibition of growth at 200 ppm [4] | inhibition of growth at 200 ppm [6] | pest or weed control at 200 ppm [5]

COc1ccnc(C(=O)N[C@@H](C)C(=O)O[C@@H](C)c2ccc(-c3ccc(Cl)cc3)cc2)c1O [I.u.001, [(1S)-1-[4-(4-chlorophenyl)phenyl]ethyl] (2S)-2-[(3-hydroxy-4-methoxy-pyridine-2-carbonyl)amino] propanoate]
≥ 80%: inhibition of growth at 200 ppm [1] | inhibition of growth at 200 ppm [7] | inhibition of growth at 200 ppm [3] | inhibition of growth at 200 ppm [4] | inhibition of growth at 200 ppm [6] | pest or weed control at 200 ppm [5]

COc1ccnc(C(=O)N[C@@H](C)C(=O)O[C@@H](C)c2ccc(-c3ccc(Br)cc3)cc2)c1OC(C)=O [I.v.019, [(1S)-1-[4-(4-bromophenyl)phenyl]ethyl] (2S)-2-[(3-acetoxy-4-methoxy-pyridine-2-carbonyl)amino] propanoate]
≥ 80%: pest or weed control at 200 ppm [2] | inhibition of growth at 200 ppm [7] | inhibition of growth at 200 ppm [4] | inhibition of growth at 200 ppm [6] | pest or weed control at 200 ppm [5]

COc1ccnc(C(=O)N[C@@H](C)C(=O)O[C@@H](C)c2ccc(-c3ccc(C)cc3)cc2)c1O [I.w.001, [(1S)-1-[4-(p-tolyl)phenyl]ethyl] (2S)-2-[(3-hydroxy-4-methoxy-pyridine-2-carbonyl)amino] propanoate]
≥ 80%: inhibition of growth at 200 ppm [1] | pest or weed control at 200 ppm [2] | inhibition of growth at 200 ppm [7] | inhibition of growth at 200 ppm [4] | inhibition of growth at 200 ppm [6] | pest or weed control at 200 ppm [5]

COc1ccnc(C(=O)N[C@@H](C)C(=O)O[C@@H](C)c2ccc(-c3ccc(C(F)(F)F)cc3)cc2)c1O [I.x.001, [(1S)-1-[4-[4-(trifluoromethyl)phenyl]phenyl]ethyl] (2S)-2-[(3-hydroxy-4-methoxy-pyridine-2-carbonyl)amino] propanoate]
≥ 80%: inhibition of growth at 200 ppm [1] | inhibition of growth at 200 ppm [7] | inhibition of growth at 200 ppm [3] | inhibition of growth at 200 ppm [4] | inhibition of growth at 200 ppm [6] | pest or weed control at 200 ppm [5]
